Reference: patent US20070134261A1, “Effectors of innate immunity” (priority 2001, published 2007)
Read-outs that look alike come from different tables or passages of the source. Residues, ends and D or L forms follow the SMILES beside them.

Columns and labels:
[1] = tested on: whole human blood; format: cell-based; conditions: 4 hr (0 μg/ml: 3205)
[2] = tested on: HBE cells; assay: Phosphorylation of MAP kinases (Western blot) in HBE cells; format: cell-based, human
Procedure: The cells were seeded at 2.5×10^5−5×10^5 cells/ml and left overnight. They were washed once in media, serum starved in the morning (serum free media—4 hrs). The media was removed and replaced with PBS, then sat at 37° C. for 15 minutes and then brought to room temp for 15 minutes. Peptide was added (concentrations 0.1 μg/ml−50 μg/ml) or H2O and incubated 10 min. The PBS was very quickly removed and replaced with ice-cold radioimmunoprecipitation (RIPA) buffer with inhibitors (NaF, B-glycerophosphate, MOL, Vanadate, PMSF, Leupeptin Aprotinin). The plates were shaken on ice for 10-15 min or until the cells were lysed and the lysates collected. The procedure for THP-1 cells was slightly different; more cells (2×10^6) were used. They were serum starved overnight, and to stop the reaction 1 ml of ice-cold PBS was added then they sat on ice 5-10 min, were spun down then resuspended in RIPA. Protein concentrations were determined using a protein assay (Pierce, Rockford, Ill.). Cell lysates (20 μg of protein) were separated by SDS-PAGE and transferred to nitrocellulose filters. […] The freshly harvested cells were consistently >99% viable as assessed by their ability to exclude trypan blue. […] Protein content was analyzed and approximately 30 μg of each sample was loaded in a 12% SDS-PAGE gel. […] Phosphorylation was detected with phosphorylation-specific antibodies.

[3] = tested on: THP-1 cells (human monocytes); assay: Induction of IL-8 in undifferentiated THP-1 cells; format: cell-based
Procedure: The murine macrophage cell line RAW 264.7, THP-1 cells (human monocytes), a human epithelial cell line (A549), human bronchial epithelial cells (16HBEo14), and whole human blood were used. HBE cells were grown in MEM with Earle's. THP-1 cells were grown and maintained in RPMI 1640 medium. The RAW and A549 cell lines were maintained in DMEM supplemented with 10% fetal calf serum. […] DMEM was aspirated from cells grown overnight and replaced with fresh medium. After incubation of the cells with peptide, the release of chemokines into the culture supernatant was determined by ELISA (R&D Systems, Minneapolis, Minn.).

[4] = tested on: A549 epithelial cells; assay: Human Operon arrays (PRHU04-S1) of A549 cells treated with peptide alone (Tables 31-37, 53); conditions: peptide 50 μg/ml, 4 h, A549 cells

CC[C@H](C)[C@H](N)C(=O)N[C@@H](CC(C)C)C(=O)N1CCC[C@H]1C(=O)N[C@@H](Cc1c[nH]c2ccccc12)C(=O)N[C@@H](CCCCN)C(=O)N[C@@H](Cc1c[nH]c2ccccc12)C(=O)N1CCC[C@H]1C(=O)N[C@@H](Cc1c[nH]c2ccccc12)C(=O)N[C@@H](Cc1c[nH]c2ccccc12)C(=O)N1CCC[C@H]1C(=O)N[C@@H](Cc1c[nH]c2ccccc12)C(=O)N[C@@H](CCCNC(=N)N)C(=O)N[C@@H](CCCNC(=N)N)C(N)=O [SEQ ID NO: 2]
IL-8 ([1]; 10 μg/ml peptide + E. coli O111:B4 LPS): 1912 pg/mL | IL-8 ([1]; 50 μg/ml peptide + E. coli O111:B4 LPS): 1458 pg/mL | phosphorylation of p38 and ERK1/2 [2]: dose dependent phosphorylation | induction of IL-8 [3]: significantly induced IL-8

CSCC[C@H](NC(=O)[C@H](CO)NC(=O)[C@@H](NC(=O)[C@H](CCCCN)NC(=O)[C@H](Cc1ccccc1)NC(=O)[C@H](CS)NC(=O)[C@H](CO)NC(=O)[C@H](CCCNC(=N)N)NC(=O)[C@@H](N)CCCCN)C(C)C)C(=O)N[C@@H](CCCNC(=N)N)C(=O)NCC(=O)N[C@H](C(=O)N[C@@H](CO)C(=O)N[C@@H](CCCNC(=N)N)C(=O)N[C@@H](CCCNC(=N)N)C(=O)N[C@@H](CCCNC(=N)N)C(=O)N[C@@H](CS)C(=O)N[C@@H](CCCCN)C(=O)O)C(C)C [SEQ ID NO: 27] (H-KRSCFKVSMRGVSRRRCK-OH; N-terminus and C-terminus assumed)
ID#:ctrl expression ratio, AB002359 phosphoribosyl formylglycina midine synthase [4]: 2.7 | ID#:ctrl expression ratio, AB006537 IL-1R accessory protein [4]: 7.0 | ID#:ctrl expression ratio, AB011124 KIAA0552 gene product [4]: 72.0 | ID#:ctrl expression ratio, AB014536 copine III [4]: 9.5 | ID#:ctrl expression ratio, AB018285 KIAA0742 protein [4]: 13.9 | ID#:ctrl expression ratio, AB020659 KIAA0852 protein [4]: 7.6 | ID#:ctrl expression ratio, AC004774 distal-less homeo box 5 [4]: 6.3 | ID#:ctrl expression ratio, AC005154 unkown [4]: 7.2 | ID#:ctrl expression ratio, AF000237 1-acylglycerol-3-phosphate O-acyltransferase 2 [4]: 2.5 | ID#:ctrl expression ratio, AF012086 RAN binding protein 2-like 1 [4]: 4.0 | ID#:ctrl expression ratio, AF030555 fatty-acid-Coenzyme A ligase_long-chain 4 [4]: 2.2 | ID#:ctrl expression ratio, AF035309 proteasome 26S subunit ATPase 5 [4]: 6.6 | ID#:ctrl expression ratio, AF038664 UDP-Gal:beta GlcNAc beta 1_4-galactosyltransferase [4]: 22.2 | ID#:ctrl expression ratio, AF042378 spindle pole body protein [4]: 3.0 | ID#:ctrl expression ratio, AF052138 unknown [4]: 2.8 | ID#:ctrl expression ratio, AF052183 unknown [4]: 3.7 | ID#:ctrl expression ratio, AF071510 lecithin retinol acyltransferase [4]: 10.3 | ID#:ctrl expression ratio, AF074723 RNA polymerase II transcriptional regulation mediator [4]: 3.2 | ID#:ctrl expression ratio, AF080579 Homo sapiens integral membrane protein [4]: 3.0 | ID#:ctrl expression ratio, AF088868 fibrousheathin II [4]: 10.0 | ID#:ctrl expression ratio, AF093265 Homer neuronal immediate early gene_3 [4]: 13.3 | ID#:ctrl expression ratio, AF124735 LIM HOX gene 2 [4]: 4.4 | ID#:ctrl expression ratio, AF131831 unknown [4]: 7.0 | ID#:ctrl expression ratio, AF151043 hypothetical protein [4]: 2.2 | ID#:ctrl expression ratio, AF251040 putative nuclear protein [4]: 3.4 | ID#:ctrl expression ratio, AJ005273 antigenic determinant of recA protein [4]: 11.1 | ID#:ctrl expression ratio, AK000161 hypothetical protein [4]: 8.7 | ID#:ctrl expression ratio, AK000227 hypothetical protein [4]: 7.1 | ID#:ctrl expression ratio, AK000541 hypothetical protein [4]: 13.9 | ID#:ctrl expression ratio, AK000576 hypothetical protein [4]: 9.3 | ID#:ctrl expression ratio, AK001075 hypothetical protein [4]: 2.6 | ID#:ctrl expression ratio, AK001135 Sec23-interacting protein p125 [4]: 4.5 | ID#:ctrl expression ratio, AK001154 hypothetical protein [4]: 4.4 | ID#:ctrl expression ratio, AK001890 unknown [4]: 3.5 | ID#:ctrl expression ratio, AL024493 unknown [4]: 13.5 | ID#:ctrl expression ratio, AL031121 unknown [4]: 3.7 | ID#:ctrl expression ratio, AL031588 hypothetical protein [4]: 20.2 | ID#:ctrl expression ratio, AL035562 paired box gene 1 [4]: 81.9 | ID#:ctrl expression ratio, AL080077 unknown [4]: 2.0 | ID#:ctrl expression ratio, AL096803 unknown [4]: 18.3 | ID#:ctrl expression ratio, AL110125 unknown [4]: 2.7 | ID#:ctrl expression ratio, AL133051 unknown [4]: 6.3 | ID#:ctrl expression ratio, AL133605 unknown [4]: 4.2 | ID#:ctrl expression ratio, AL137268 KIAA0759 protein [4]: 2.3 | ID#:ctrl expression ratio, AL137461 unknown [4]: 9.0 | ID#:ctrl expression ratio, AL137540 unknown [4]: 2.6 | ID#:ctrl expression ratio, AL137577 unknown [4]: 6.2 | ID#:ctrl expression ratio, AL137718 unknown [4]: 8.0 | ID#:ctrl expression ratio, D00760 proteasome subunit_alpha type_2 [4]: 2.6 | ID#:ctrl expression ratio, D12676 CD36 antigen [4]: 3.4 | ID#:ctrl expression ratio, D31891 SET domain_bifurcated_1 [4]: 6.0 | ID#:ctrl expression ratio, D42053 site-1 protease [4]: 7.1 | ID#:ctrl expression ratio, D50405 histone deacetylase 1 [4]: 7.2 | ID#:ctrl expression ratio, D80000 Segregation of mitotic chromosomes 1 [4]: 2.5 | ID#:ctrl expression ratio, D87120 osteoblast protein [4]: 2.0 | ID#:ctrl expression ratio, J03068 N-acylaminoacyl-peptide hydrolase [4]: 5.0 | ID#:ctrl expression ratio, L34587 transcription elongation factor B [4]: 16.3 | ID#:ctrl expression ratio, M34175 adaptor-related protein complex 2 beta 1 subunit [4]: 3.1 | ID#:ctrl expression ratio, M81933 cell division cycle 25A [4]: 3.1 | ID#:ctrl expression ratio, M97925 defensin alpha 5_Paneth cell-specific [4]: 35.9 | ID#:ctrl expression ratio, NM_004732 potassium voltage-gated channel [4]: 4.0 | ID#:ctrl expression ratio, NM_004862 LPS-induced TNF-alpha factor [4]: 4.8 | ID#:ctrl expression ratio, NM_006963 zinc finger protein 22 [4]: 7.6 | ID#:ctrl expression ratio, NM_013329 GC-rich sequence DNA-binding factor candidate [4]: 14.3 | ID#:ctrl expression ratio, NM_013393 cell division protein FtsJ [4]: 5.8 | ID#:ctrl expression ratio, NM_014366 putative nucleotide binding protein_estradiol-induced [4]: 4.3 | ID#:ctrl expression ratio, NM_016015 CGI-68 protein [4]: 2.3 | ID#:ctrl expression ratio, S49953 DNA-binding transcriptional activator [4]: 4.0 | ID#:ctrl expression ratio, S57296 HER2/neu receptor [4]: 12.1 | ID#:ctrl expression ratio, U00115 zinc finger protein 51 [4]: 2.2 | ID#:ctrl expression ratio, U13666 G protein-coupled receptor 1 [4]: 5.4 | ID#:ctrl expression ratio, U33547 MHC class II antigen HLA-DRB6 mRNA [4]: 5.3 | ID#:ctrl expression ratio, U67156 mitogen-activated protein kinase kinase kinase 5 [4]: 3.0 | ID#:ctrl expression ratio, U68018 MAD homolog 2 [4]: 2.2 | ID#:ctrl expression ratio, U71092 G protein-coupled receptor 24 [4]: 9.1 | ID#:ctrl expression ratio, U78305 protein phosphatase 1D [4]: 13.0 | ID#:ctrl expression ratio, U88528 cAMP responsive element binding protein [4]: 5.4 | ID#:ctrl expression ratio, U88666 SFRS protein kinase 2 [4]: 5.9 | ID#:ctrl expression ratio, X59770 IL-1R type II [4]: 4.7 | ID#:ctrl expression ratio, X62744 MHC class II DM alpha [4]: 4.7 | ID#:ctrl expression ratio, X63563 polymerase II polypeptide B [4]: 8.1 | ID#:ctrl expression ratio, X89399 RAS p21 protein activator [4]: 14.9
